Data taken from patent US20210255193A1, “LYSINE REACTIVE PROBES AND USES THEREOF” (The Scripps Research Institute, priority 2017, published 2021).
One block for each compound: values may come before it.

Assays:
[1] = biological target: T1, PSME3 Proteasome activator complex subunit 3 (Homo sapiens, UniProt P61289); assay: competitive isoTOP-ABPP; format: binding; design: key to isoTOP-ABPP reactivity ratio at lysine P61289_K237: R = MS1 peak area ratio, DMSO (heavy) / compound-treated (light); key to isoTOP-ABPP reactivity ratio at lysine P61289_K12: R = MS1 peak area ratio, DMSO (heavy) / compound-treated (light); capped at 20; conditions: 50 uM, in vitro; for R value (DMSO/fragment) for probe 1 labeling / isoTOP-ABPP reactivity ratio at lysine P61289_K237 / isoTOP-ABPP reactivity ratio at lysine P61289_K12: 231 sol
T1 construct: isoTOP-ABPP experiments performed in cell lysates (in vitro); endogenous in cells; host or cells: soluble proteome of human cancer cell lines (MDA-MB-231, Ramos, Jurkat)
Description: (§1) In vitro covalent fragment treatment for isoTOP-ABPP. All compounds were made up as solutions in DMSO (100×) and were used at a final concentration of 50 μM for activated esters and 100 μM for guanidinylating agents. For each profiling sample, 0.5 ml of lysate was treated with 5 μl of the 100× compound stock solution or 5 μl of DMSO. Samples were treated with activated esters for
(§2) STP-alkyne labeling and click chemistry. For concentration-dependent reactivity measurements by isoTOP-ABPP, 0.5 ml proteome aliquots were treated at ambient temperature with 1 mM STP-alkyne 1 (5 μl of 100 mM stock in DMSO) and 0.1 mM STP alkyne 1 (5 μl of 10 mM stock in DMSO), respectively. For competitive isoTOP-ABPP, after in vitro fragment treatment (detailed above), the samples were labeled for 1 h at ambient temperature with 0.1 mM STP-alkyne 1 (5 μl of 10 mM stock in DMSO). Samples were conjugated by copper-mediated azide-alkyne cycloaddition (CuAAC) to either the light (1 mM STP-alkyne or fragment treated) or heavy (0.1 mM STP-alkyne or DMSO treated) TEV tags (10 μl of 5 mM stocks in DMSO, final concentration=100 μM) using tris(2-carboxyethyl)phosphine hydrochloride
(§3) R value calculation and processing. The ratios of light and heavy MS1 peaks for each unique peptide were quantified with a CIMAGE software using default parameters (3 MS1 acquisitions per peak and signal to noise threshold set to 2.5). For reactivity measurements by isoTOP-ABPP, the R value was calculated from the ratio of MS1 peak areas, comparing the 1 mM STP alkyne sample (light TEV tag) with the 0.1 mM STP alkyne sample (heavy TEV tag). For competitive isoTOP-ABPP, the R value was calculated from the ratio of MS1 peak areas, comparing the DMSO treated sample (heavy TEV tag) with the compound treated sample (light TEV tag). […] Ratios for unique peptide entries are calculated for each experiment; overlapping peptides with the same modified lysine (for example, different charge states, MudPIT chromatographic steps or tryptic termini) are grouped together and the median ratio is reported as the final ratio (R). The peptide ratios reported by CIMAGE were further filtered to ensure the removal or correction of low-quality ratios in each individual data set. The quality filters applied were the following: removal of half tryptic peptides; for ratios with high standard deviations from the median (90% of the median or above) the lowest ratio was taken instead of the median; removal of peptides with R=20 and only a single MS2 event triggered during the elution of the parent ion; manual annotation of all the peptides with ratios of 20, removing any peptides with low quality elution profiles that remained after the previous curation steps (only done for competitive isoTOP-ABPP).
(§4) Cross-data processing for fragment screening. For compound treated samples, biological replicates of the same condition were averaged, if the standard deviation was below 60% of the mean; otherwise, for lysines with at least one R value <4 for a particular compound, the lowest value of the ratio set was taken. For lysines, where all R values for a particular compound were ≥4, the average was reported. For peptides containing several possible modified lysines, the lysine with the highest number of quantification events was used for analysis and the remaining, redundant peptides were reported as alternative modification sites. Peptides included in the aggregate dataset (those used for further bioinformatics and statistical analyses) were required to have been quantified in 2 experiments for competitive isoTOP-ABPP. Lysines were categorized as liganded, if they had at least one ratio R≥4 (hit fragments). For liganded lysines with R=20 for all liganding events, lysines were required to have been quantified with R=20 in two separate experiments and were further required to have been quantified with R<20 in one additional experiment.

HK1 Hexokinase-1 = biological target: T2, HK1 Hexokinase-1 (Homo sapiens, UniProt P19367); assay: competitive isoTOP-ABPP; format: binding; design: key to isoTOP-ABPP reactivity ratio at lysine P19367_K510: R = MS1 peak area ratio, DMSO (heavy) / compound-treated (light); conditions: for R value (DMSO/fragment) for probe 1 labeling: P19367_K510; for R value (DMSO/fragment) for probe 1 labeling / isoTOP-ABPP reactivity ratio at lysine P19367_K510: 231 sol; for isoTOP-ABPP ratio, lysine P19367_K510: 50 uM_231_sol_in vitro
T2 construct: isoTOP-ABPP experiments performed in cell lysates (in vitro); endogenous in cells; host or cells: soluble proteome of human cancer cell lines (MDA-MB-231; Ramos and Jurkat also prepared)
T2 sequence (P19367 1-917): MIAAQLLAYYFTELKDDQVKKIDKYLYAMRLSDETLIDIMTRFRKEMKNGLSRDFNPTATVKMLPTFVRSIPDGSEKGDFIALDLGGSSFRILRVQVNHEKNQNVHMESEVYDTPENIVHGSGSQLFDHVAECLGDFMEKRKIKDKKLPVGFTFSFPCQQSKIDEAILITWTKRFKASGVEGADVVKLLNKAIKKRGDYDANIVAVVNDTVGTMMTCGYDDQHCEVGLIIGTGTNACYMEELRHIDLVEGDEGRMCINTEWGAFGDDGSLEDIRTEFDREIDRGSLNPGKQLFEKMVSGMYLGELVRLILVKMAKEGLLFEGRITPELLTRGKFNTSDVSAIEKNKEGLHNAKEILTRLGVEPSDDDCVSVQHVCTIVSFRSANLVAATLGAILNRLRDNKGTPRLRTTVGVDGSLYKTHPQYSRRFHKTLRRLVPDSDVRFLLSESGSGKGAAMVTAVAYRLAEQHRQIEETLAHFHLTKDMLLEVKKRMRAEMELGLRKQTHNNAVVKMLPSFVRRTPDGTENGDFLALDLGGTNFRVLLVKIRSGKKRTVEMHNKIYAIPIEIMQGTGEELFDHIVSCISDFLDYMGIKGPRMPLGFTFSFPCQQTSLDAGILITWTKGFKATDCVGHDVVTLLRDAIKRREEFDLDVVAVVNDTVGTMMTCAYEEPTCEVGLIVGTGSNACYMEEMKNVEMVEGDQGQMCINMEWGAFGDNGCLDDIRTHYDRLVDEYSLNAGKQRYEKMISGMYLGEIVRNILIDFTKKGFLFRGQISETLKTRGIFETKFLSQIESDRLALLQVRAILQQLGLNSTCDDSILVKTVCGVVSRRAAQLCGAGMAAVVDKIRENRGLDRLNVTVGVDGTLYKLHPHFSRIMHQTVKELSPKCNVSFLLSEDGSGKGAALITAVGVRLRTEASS
Description: as §1, §2, §3, §4

T1 sequence (P61289 whole entry, the tested form may be a part, one chain of several): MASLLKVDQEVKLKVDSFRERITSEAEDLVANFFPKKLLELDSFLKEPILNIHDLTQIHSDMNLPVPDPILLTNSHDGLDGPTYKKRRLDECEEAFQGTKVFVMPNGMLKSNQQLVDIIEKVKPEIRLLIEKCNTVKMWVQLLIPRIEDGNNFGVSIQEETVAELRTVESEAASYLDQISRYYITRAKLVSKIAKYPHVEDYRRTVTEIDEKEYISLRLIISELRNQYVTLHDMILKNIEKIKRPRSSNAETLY

Structure (SMILES): O=C(Oc1c(F)c(F)c(F)c(F)c1F)C(c1ccccc1)c1ccccc1 [fragment 20, Pentafluorophenyl 2,2-diphenylacetate]
R value (DMSO/fragment) for probe 1 labeling ([1]; P61289_K12): 0.9
R value (DMSO/fragment) for probe 1 labeling ([1]; P61289_K237): 0.9
R value (DMSO/fragment) for probe 1 labeling (HK1 Hexokinase-1; 50 uM, in vitro): 0.9

Structure (SMILES): O=C(Oc1c(F)c(F)c(F)c(F)c1F)c1cc(C(F)(F)F)cc(C(F)(F)F)c1 [fragment 21, Pentafluorophenyl 3,5-bis(trifluoromethyl)benzoate]
R value (DMSO/fragment) for probe 1 labeling ([1]; P61289_K12): 1.0
R value (DMSO/fragment) for probe 1 labeling ([1]; P61289_K237): 0.9
R value (DMSO/fragment) for probe 1 labeling (HK1 Hexokinase-1; 50 uM, in vitro): 1.0

Structure (SMILES): Cn1cc(CC(=O)Oc2c(F)c(F)c(F)c(F)c2F)c2ccccc21 [fragment 22, Pentafluorophenyl 2-(1-methyl-1H-indol-3-yl)acetate]
R value (DMSO/fragment) for probe 1 labeling ([1]; P61289_K12): 0.9
R value (DMSO/fragment) for probe 1 labeling ([1]; P61289_K237): 1.1
R value (DMSO/fragment) for probe 1 labeling (HK1 Hexokinase-1; 50 uM, in vitro): 1.3

Structure (SMILES): O=C(Oc1c(F)c(F)c(F)c(F)c1F)C1CCN(C(=O)OCc2ccccc2)CC1 [fragment 24, 1-Benzyl 4-(pentafluorophenyl) piperidine-1,4-dicarboxylate]
isoTOP-ABPP reactivity ratio at lysine P61289_K237 [1]: 0.2

Structure (SMILES): O=C(Oc1c(F)c(F)c(F)c(F)c1F)c1ccc2ccccc2n1 [fragment 25, Pentafluorophenyl quinoline-2-carboxylate]
isoTOP-ABPP reactivity ratio at lysine P61289_K12 [1]: 0.9
isoTOP-ABPP reactivity ratio at lysine P61289_K237 [1]: 0.5
isoTOP-ABPP reactivity ratio at lysine P19367_K510 (HK1 Hexokinase-1; 50 uM, in vitro): 1.2

Structure (SMILES): O=C(CN1C(=O)c2ccccc2C1=O)Oc1c(F)c(F)c(F)c(F)c1F [fragment 27, Pentafluorophenyl 2-(1,3-dioxoisoindolin-2-yl)acetate]
isoTOP-ABPP reactivity ratio at lysine P61289_K237 [1]: 0.8
isoTOP-ABPP reactivity ratio at lysine P19367_K510 (HK1 Hexokinase-1; 50 uM, in vitro): 1.3

Structure (SMILES): O=C(Oc1ccc([N+](=O)[O-])cc1[N+](=O)[O-])c1ccccc1Nc1cccc(C(F)(F)F)c1 [fragment 40, 2,4-Dinitrophenyl 2-((3-(trifluoromethyl)phenyl)amino)benzoate]
isoTOP-ABPP ratio (R) at liganded lysine P61289_K12 ([1]; sol, 231): 0.8
isoTOP-ABPP ratio (R) at liganded lysine P61289_K237 ([1]; sol, 231): 0.7

Structure (SMILES): CC(=O)Oc1ccc([N+](=O)[O-])cc1[N+](=O)[O-] [fragment 43, 2,4-Dinitrophenyl acetate]
isoTOP-ABPP ratio (R) at liganded lysine P19367_K510 (HK1 Hexokinase-1; 50 uM, in vitro, sol, 231): 20.0

Structure (SMILES): N#Cc1ccc(C(=O)Oc2ccc([N+](=O)[O-])cc2[N+](=O)[O-])cc1 [fragment 44, 2,4-Dinitrophenyl 4-cyanobenzoate]
isoTOP-ABPP ratio, lysine P19367_K510 (HK1 Hexokinase-1): 1.2

Structure (SMILES): O=C(Oc1c(F)c(F)cc(F)c1F)c1cc(C(F)(F)F)cc(C(F)(F)F)c1 [fragment 48, 2,3,5,6-Tetrafluorophenyl 3,5-bis(trifluoromethyl)benzoate]
isoTOP-ABPP ratio, lysine P19367_K510 (HK1 Hexokinase-1): 0.8

Results, then the compound that gave them:

R value (DMSO/fragment) for probe 1 labeling ([1]; P61289_K12): 1.0
R value (DMSO/fragment) for probe 1 labeling ([1]; P61289_K237): 0.2
R value (DMSO/fragment) for probe 1 labeling (HK1 Hexokinase-1; 50 uM, in vitro): 1.2
Structure (SMILES): O=C(CCc1cn(-c2ccccc2)nc1-c1ccccc1)Oc1c(F)c(F)c(F)c(F)c1F [fragment 19, Pentafluorophenyl 3-(1,3-diphenyl-1H-pyrazol-4-yl)propanoate]

R value (DMSO/fragment) for probe 1 labeling ([1]; P61289_K237): 0.5
R value (DMSO/fragment) for probe 1 labeling (HK1 Hexokinase-1; 50 uM, in vitro): 2.0
Structure (SMILES): COc1cc(CCC(=O)Oc2c(F)c(F)c(F)c(F)c2F)cc(OC)c1OC [fragment 23, Pentafluorophenyl 3-(3,4,5-trimethoxyphenyl)propanoate]

isoTOP-ABPP reactivity ratio at lysine P61289_K12 [1]: 0.9
isoTOP-ABPP reactivity ratio at lysine P61289_K237 [1]: 1.1
isoTOP-ABPP reactivity ratio at lysine P19367_K510 (HK1 Hexokinase-1; 50 uM, in vitro): 3.4
Structure (SMILES): O=C(CCc1coc2cc(F)ccc2c1=O)Oc1c(F)c(F)c(F)c(F)c1F [fragment 26, Pentafluorophenyl 3-(7-fluoro-4-oxo-4H-chromen-3-yl)propanoate]

isoTOP-ABPP reactivity ratio at lysine P61289_K12 [1]: 1.0
isoTOP-ABPP reactivity ratio at lysine P61289_K237 [1]: 0.6
isoTOP-ABPP reactivity ratio at lysine P19367_K510 (HK1 Hexokinase-1; 50 uM, in vitro): 0.9
Structure (SMILES): CCn1cc(C(=O)Oc2c(F)c(F)c(F)c(F)c2F)c(=O)c2ccc(C)nc21 [fragment 28, Pentafluorophenyl 1-ethyl-7-methyl-4-oxo-1,4-dihydro-1,8-naphthyridine-3-carboxylate]
